For assay [1], the species on record is Homo sapiens. The assay is described as follows: Tested for the ability to inhibit arachidonic acid induced platelet aggregation in human platelet rich plasma. Type of assay: functional. The conditions noted are these: read-out: I50.
Assay [2] addresses T1, Thromboxane A2 receptor (Homo sapiens, UniProt P21731).
T1 sequence (P21731 whole entry): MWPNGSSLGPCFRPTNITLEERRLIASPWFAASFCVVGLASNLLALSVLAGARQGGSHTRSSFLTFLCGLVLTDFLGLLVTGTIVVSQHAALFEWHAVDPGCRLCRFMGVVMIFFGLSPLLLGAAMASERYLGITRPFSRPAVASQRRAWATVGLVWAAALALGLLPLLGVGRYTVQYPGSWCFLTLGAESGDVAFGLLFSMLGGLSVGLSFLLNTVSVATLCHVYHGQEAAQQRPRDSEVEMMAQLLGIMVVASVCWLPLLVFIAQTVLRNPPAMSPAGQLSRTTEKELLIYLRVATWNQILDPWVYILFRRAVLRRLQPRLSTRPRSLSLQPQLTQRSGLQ
The assay is described as follows: Binding affinity was determined for Thromboxane A2 receptor in human platelet membrane using [3H]SQ-29,548 radioligand. The assay is classed as cell membranes.

Turning to `O=C(O)CCc1ccccc1C[C@@H]1CCC[C@@H]1c1nc(C(=O)NCCCCC2CCCCC2)co1`, the IC50 in assay [1] amounted to 0.107 µM. Besides, the Kd (usually a measure of binding affinity in units of concentration) in assay [2] was determined as 0.0238 µM.

As for `O=C(O)CCc1ccccc1CC1=C(c2nc(C(=O)NCCc3ccc(Cl)cc3)co2)CCCC1`, the IC50 in assay [1] stood at 0.194 µM. For the same compound, in assay [2], the Kd was determined as 0.0635 µM.

In the case of `O=C(O)CCc1ccccc1C[C@H]1CCC[C@@H]1c1nc(C(=O)NCc2ccc(Cl)cc2)co1`, the IC50 in assay [1] was determined as 5.16 µM. The same compound displayed a Kd in assay [2] of 0.0033 µM.

As for `O=C(O)CCc1ccccc1C[C@@H]1CCC[C@H]1c1nc(C(=O)NCc2ccc(Cl)cc2)co1`, the IC50 in assay [1] came out at 0.338 µM. Moreover, in assay [2], the Kd was 0.0005 µM.

For the compound `C/C(Cc1ccccc1CCC(=O)O)=C(\C)c1nc(C(=O)NCCc2ccc(Cl)cc2)co1`, the IC50 in assay [1] was 0.235 µM. This compound returned a Kd in assay [2] of 0.0373 µM.

For the compound `O=C(O)CCc1ccccc1CC1CCC[C@H]1c1nc(C(=O)NCCCCC2CCCCC2)co1` (single isomer, unassigned; (-)), the IC50 in assay [1] came to 0.015 µM. Moreover, binding in assay [2] was put at a Kd of 0.0043 µM.

These data come from ChEMBL document CHEMBL1126505, “Syntheses of Cyclopentane, Cyclohexene and Olefin Oxazoles as Thromboxane A2/Endoperoxide Receptor Antagonists” (Bioorg Med Chem Lett, 1993).
